Drawing on patent US10428083B2, “Heterocyclylmethyl-thienouracile as antagonists of the adenosine-A2B-receptor” (BAYER PHARMA AKTIENGESELLSCHAFT, priority 2015, dated 2019), this text covers IC50 for 28 compounds.

The target of this assay is human adenosine A2b receptor (Homo sapiens (Human), UniProt P29275). Nature of the assay: Cellular in vitro reporter gene test for A2b receptor activity (CHO-K1, CRE-luciferase, NECA stimulation). The class given is cell-based. The note with it: recombinant CHO-K1 cell line, CRE-luciferase reporter, antagonism of EC50 concentration of NECA; in some cases means of several determinations, rounded to two significant figures; read-out: A2b receptor IC50. The essentials:
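CHO-K1 cells with CRE-driven luciferase; antagonists co-incubated with NECA at its EC50, determined in a pre-experiment on each test day. Luciferase read by luminescence 3 h after NECA addition.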
For orientation: A reporter such as luciferase makes a cellular process visible.

Chain of human adenosine A2b receptor (P29275 whole entry): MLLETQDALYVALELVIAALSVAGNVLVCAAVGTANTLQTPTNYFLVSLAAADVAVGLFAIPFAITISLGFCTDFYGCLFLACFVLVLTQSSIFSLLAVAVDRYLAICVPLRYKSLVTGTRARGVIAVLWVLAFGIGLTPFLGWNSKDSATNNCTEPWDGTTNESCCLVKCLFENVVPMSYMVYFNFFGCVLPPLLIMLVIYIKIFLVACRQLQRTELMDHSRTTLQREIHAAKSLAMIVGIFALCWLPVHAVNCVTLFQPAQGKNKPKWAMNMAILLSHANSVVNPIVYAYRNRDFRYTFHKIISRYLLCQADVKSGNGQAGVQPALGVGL

The IC50 is the point on the concentration scale where inhibition reaches its midpoint. On to `Cc1c(CN2CCNC(=O)C2=O)sc2c1c(=O)n(C(C)C)c(=O)n2CCC(F)(F)F` [Example 478, 6-[(2,3-Dioxopiperazin-1-yl)methyl]-3-isopropyl-5-methyl-1-(3,3,3-trifluoropropyl)thieno[2,3-d]pyrimidine-2,4(1H,3H)-dione], for which the half-maximal inhibitory concentration (IC50) came to 41 nM.
To `CCOCCn1c(=O)n(CC(C)C)c(=O)c2c(C)c(CN3CCNC3=O)sc21` [Example 193, 1-(2-Ethoxyethyl)-3-isobutyl-5-methyl-6-[(2-oxoimidazolidin-1-yl)methyl]thieno[2,3-d]pyrimidine-2,4(1H,3H)-dione] belongs 25 nM; to `CCn1c(=O)c2c(C)c(Cn3nc[nH]c3=O)sc2n(CC2CCCO2)c1=O` (single isomer, unassigned) [Example 420, 3-Ethyl-5-methyl-6-[(5-oxo-4,5-dihydro-1H-1,2,4-triazol-1-yl)methyl]-1-(tetrahydrofuran-2-ylmethyl)thieno[2,3-d]pyrimidine-2,4(1H,3H)-dione], 50 nM; to `CCn1c(=O)c2c(C(F)(F)F)c(CN3CCCS3(=O)=O)sc2n(CCC(F)(F)F)c1=O` [Example 19, 6-[(1,1-Dioxido-1,2-thiazolidin-2-yl)methyl]-3-ethyl-5-(trifluoromethyl)-1-(3,3,3-trifluoropropyl)thieno[2,3-d]pyrimidine-2,4(1H,3H)-dione], 5.6 nM.
To `Cc1c(CN2CCNC2=S)sc2c1c(=O)n(CC(C)C)c(=O)n2CCCF` [Example 144, 1-(3-Fluoropropyl)-3-isobutyl-5-methyl-6-[(2-thioxoimidazolidin-1-yl)methyl]thieno[2,3-d]pyrimidine-2,4(1H,3H)-dione] belongs 1.5 nM.
To `Cc1c(CN2CCNC2=O)sc2c1c(=O)n(C(C)C)c(=O)n2CC1CCCO1` (racemic) [Example 186, 3-Isopropyl-5-methyl-6-[(2-oxoimidazolidin-1-yl)methyl]-1-(tetrahydrofuran-2-ylmethyl)thieno[2,3-d]pyrimidine-2,4(1H,3H)-dione] belongs 13 nM; to `Cc1c(Cn2nc[nH]c2=O)sc2c1c(=O)n(CC(C)(C)C)c(=O)n2CCC(F)(F)F` [Example 427, 3-(2,2-Dimethylpropyl)-5-methyl-6-[(5-oxo-4,5-dihydro-1H-1,2,4-triazol-1-yl)methyl]-1-(3,3,3-trifluoropropyl)thieno[2,3-d]pyrimidine-2,4(1H,3H)-dione], 37 nM; to `CCn1c(=O)c2c(C)c(CN3CCNC3=S)sc2n(CCC(C)(C)C)c1=O` [Example 37, 1-(3,3-Dimethylbutyl)-3-ethyl-5-methyl-6-[(2-thioxoimidazolidin-1-yl)methyl]thieno[2,3-d]pyrimidine-2,4(1H,3H)-dione], 220 nM.
For `COC(=O)N=C1NCCN1Cc1sc2c(c1C)c(=O)n(C(C)C)c(=O)n2CC1CCO1` (single isomer, unassigned) [Example 458, Methyl [1-{[3-isopropyl-5-methyl-1-(oxetan-2-ylmethyl)-2,4-dioxo-1,2,3,4-tetrahydrothieno[2,3-d]pyrimidin-6-yl]methyl}imidazolidin-2-ylidene]carbamate], the IC50 stood at 34 nM.
Turning to `CCn1c(=O)c2c(C)c(Cn3nc[nH]c3=O)sc2n(CC2CCCO2)c1=O` (single isomer, unassigned) [Example 421, 3-Ethyl-5-methyl-6-[(5-oxo-4,5-dihydro-1H-1,2,4-triazol-1-yl)methyl]-1-(tetrahydrofuran-2-ylmethyl)thieno[2,3-d]pyrimidine-2,4(1H,3H)-dione], the half-maximal inhibitory concentration (IC50) was determined as 71 nM.
Next, `COC(C)Cn1c(=O)c2c(C)c(CN3CCNC3=O)sc2n(CCC(F)(F)F)c1=O` (single isomer, unassigned) [Example 414, 3-(2-Methoxypropyl)-5-methyl-6-[(2-oxoimidazolidin-1-yl)methyl]-1-(3,3,3-trifluoropropyl)thieno[2,3-d]pyrimidine-2,4(1H,3H)-dione]: 11 nM; `CCn1c(=O)c2c(C)c(CN3CCNC3=S)sc2n(CCCOC)c1=O` [Example 296, 3-Ethyl-1-(3-methoxypropyl)-5-methyl-6-[(2-thioxoimidazolidin-1-yl)methyl]thieno[2,3-d]pyrimidine-2,4(1H,3H)-dione]: 16 nM.
Next, `COCCn1c(=O)c2c(C)c(CN3CCNC3=S)sc2n(CCOC)c1=O` [Example 168, 1,3-Bis(2-methoxyethyl)-5-methyl-6-[(2-thioxoimidazolidin-1-yl)methyl]thieno[2,3-d]pyrimidine-2,4(1H,3H)-dione]: 15 nM.
To `COC(C)Cn1c(=O)c2c(C)c(CN3CCNC(=O)C3=O)sc2n(CCC(F)(F)F)c1=O` (single isomer, unassigned) [Example 494, 6-[(2,3-Dioxopiperazin-1-yl)methyl]-3-(2-methoxypropyl)-5-methyl-1-(3,3,3-trifluoropropyl)thieno[2,3-d]pyrimidine-2,4(1H,3H)-dione] belongs 20 nM; to `CCn1c(=O)c2c(C)c(CN3CCNC3=O)sc2n(CC2CC2(F)F)c1=O` (single isomer, unassigned; enantiomer 1) [Example 55, 1-[(2,2-Difluorocyclopropyl)methyl]-3-ethyl-5-methyl-6-[(2-oxoimidazolidin-1-yl)methyl]thieno[2,3-d]pyrimidine-2,4(1H,3H)-dione (Enantiomer 1)], 1.3 nM.
Turning to `C=CCn1c(=O)c2c(C)c(CN3CCNC3=O)sc2n(CCOC)c1=O` [Example 85, 3-Allyl-1-(2-methoxyethyl)-5-methyl-6-[(2-oxoimidazolidin-1-yl)methyl]thieno[2,3-d]pyrimidine-2,4(1H,3H)-dione], the IC50 was 18 nM.
As for `COC(C)Cn1c(=O)c2c(C)c(CN3CCNC3=O)sc2n(CCC(F)(F)F)c1=O` (single isomer, unassigned) [Example 413, 3-(2-Methoxypropyl)-5-methyl-6-[(2-oxoimidazolidin-1-yl)methyl]-1-(3,3,3-trifluoropropyl)thieno[2,3-d]pyrimidine-2,4(1H,3H)-dione], the 50% inhibitory concentration (IC50) is 4.6 nM.
`COCCn1c(=O)n(CC(C)OC)c(=O)c2c(C)c(CN3CCNC3=O)sc21` (single isomer, unassigned) [Example 234, 1-(2-Methoxyethyl)-3-(2-methoxypropyl)-5-methyl-6-[(2-oxoimidazolidin-1-yl)methyl]thieno[2,3-d]pyrimidine-2,4(1H,3H)-dione]: the IC50 turned out to be 7.8 nM.
As for `CCn1c(=O)c2c(C)c(CN3CCCNC3=O)sc2n(CCC(F)(F)F)c1=O` [Example 107, 3-Ethyl-5-methyl-6-[(2-oxotetrahydropyrimidin-1(2H)-yl)methyl]-1-(3,3,3-trifluoropropyl)thieno[2,3-d]pyrimidine-2,4(1H,3H)-dione], the IC50 was 11 nM.
On to `Cc1c(CN2CCNC2=O)sc2c1c(=O)n(CC(C)C)c(=O)n2CC1CCO1` (single isomer, unassigned) [Example 196, 3-Isobutyl-5-methyl-1-(oxetan-2-ylmethyl)-6-[(2-oxoimidazolidin-1-yl)methyl]thieno[2,3-d]pyrimidine-2,4(1H,3H)-dione], for which the concentration for half-maximal inhibition (IC50) is 6.5 nM.
For the compound `Cc1c(CN2CCNC2=O)sc2c1c(=O)n(C(C)C)c(=O)n2CC1CCCO1` (single isomer, unassigned) [Example 187, 3-Isopropyl-5-methyl-6-[(2-oxoimidazolidin-1-yl)methyl]-1-(tetrahydrofuran-2-ylmethyl)thieno[2,3-d]pyrimidine-2,4(1H,3H)-dione], the IC50 turned out to be 6.3 nM.
`Cc1c(CN2CCNC2=NC#N)sc2c1c(=O)n(C(C)C)c(=O)n2CC1CCCO1` (single isomer, unassigned) [Example 357, [1-{[3-Isopropyl-5-methyl-2,4-dioxo-1-(tetrahydrofuran-2-ylmethyl)-1,2,3,4-tetrahydrothieno[2,3-d]pyrimidin-6-yl]methyl}imidazolidin-2-ylidene]cyanamide]: the IC50 is 32 nM.
To `COCCn1c(=O)c2c(C)c(CN3CCNC3=O)sc2n(CC2CCCO2)c1=O` (single isomer, unassigned) [Example 325, 3-(2-Methoxyethyl)-5-methyl-6-[(2-oxoimidazolidin-1-yl)methyl]-1-(tetrahydrofuran-2-ylmethyl)thieno[2,3-d]pyrimidine-2,4(1H,3H)-dione] belongs 65 nM.
For `CCn1c(=O)c2c(C)c(Cn3c(C)c[nH]c3=O)sc2n(CCC(F)(F)F)c1=O` [Example 251, 3-Ethyl-5-methyl-6-[(5-methyl-2-oxo-2,3-dihydro-1H-imidazol-1-yl)methyl]-1-(3,3,3-trifluoropropyl)thieno[2,3-d]pyrimidine-2,4(1H,3H)-dione], the IC50 worked out at 1.3 nM.
As to `CCn1c(=O)c2c(C)c(CN3CCNC3=O)sc2n(C)c1=O` [Example 76, 3-Ethyl-1,5-dimethyl-6-[(2-oxoimidazolidin-1-yl)methyl]thieno[2,3-d]pyrimidine-2,4(1H,3H)-dione], the IC50 came out at 9.3 nM.
Consider `COCCn1c(=O)n(CC(F)(F)F)c(=O)c2c(C)c(CN3CCNC3=NC#N)sc21` [Example 268, [1-{[1-(2-Methoxyethyl)-5-methyl-2,4-dioxo-3-(2,2,2-trifluoroethyl)-1,2,3,4-tetrahydrothieno[2,3-d]pyrimidin-6-yl]methyl}imidazolidin-2-ylidene]cyanamide], for which the IC50 stood at 12 nM.
Regarding `COCCn1c(=O)c2c(C)c(Cn3[nH]ccc3=O)sc2n(CCC(F)(F)F)c1=O` [Example 287, 3-(2-Methoxyethyl)-5-methyl-6-[(5-oxo-2,5-dihydro-1H-pyrazol-1-yl)methyl]-1-(3,3,3-trifluoropropyl)thieno[2,3-d]pyrimidine-2,4(1H,3H)-dione], the concentration for half-maximal inhibition (IC50) is 63 nM.
Next, `Cc1c(CN2CCN(C)C2=S)sc2c1c(=O)n(CC(F)(F)F)c(=O)n2CCC(F)(F)F` [Example 306, 5-Methyl-6-[(3-methyl-2-thioxoimidazolidin-1-yl)methyl]-3-(2,2,2-trifluoroethyl)-1-(3,3,3-trifluoropropyl)thieno[2,3-d]pyrimidine-2,4(1H,3H)-dione]: 5.9 nM.
